Source: patent US12637468B2, “Substituted [1,2,4]triazolo[4,3-b]pyridazines as GABAA receptor modulators” (SHANGHAI SIMR BIOTECHNOLOGY CO., LTD., priority 2019, dated 2026)
≈ marks a conversion by molar mass, not a printed value.

How the values were obtained:
α5-GABAA receptor = target: T1, α5-GABAA receptor (Homo sapiens, UniProt P18507+P31644); experiment: Cell-level screening: whole cell patch clamp, inverse agonist efficacy on α5-GABAA receptor expressed in HEK293; format: cell-based; conditions: drug 100 nM, GABA 0.05 μM, HEK293 expressing α5, β3 and γ2 subunits, clamped at −60 mV; read-out: Compound inverse agonist efficacy %
T1 construct: expressed in transfected cells; host or cells: HEK293, monoclonal stably transfected line
T1 sequence (P31644 32-462): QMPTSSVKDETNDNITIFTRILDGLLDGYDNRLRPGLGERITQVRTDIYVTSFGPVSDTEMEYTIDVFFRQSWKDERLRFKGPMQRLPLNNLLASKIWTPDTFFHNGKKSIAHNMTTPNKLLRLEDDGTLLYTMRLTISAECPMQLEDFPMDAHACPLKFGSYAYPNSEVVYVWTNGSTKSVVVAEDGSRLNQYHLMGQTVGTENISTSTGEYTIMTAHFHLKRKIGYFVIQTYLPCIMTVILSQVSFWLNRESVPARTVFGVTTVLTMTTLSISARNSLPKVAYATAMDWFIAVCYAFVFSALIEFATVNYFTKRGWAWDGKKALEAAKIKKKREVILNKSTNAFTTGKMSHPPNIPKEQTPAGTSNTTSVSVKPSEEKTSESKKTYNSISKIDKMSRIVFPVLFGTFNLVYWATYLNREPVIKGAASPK
T1 sequence (P28472 26-473 partner): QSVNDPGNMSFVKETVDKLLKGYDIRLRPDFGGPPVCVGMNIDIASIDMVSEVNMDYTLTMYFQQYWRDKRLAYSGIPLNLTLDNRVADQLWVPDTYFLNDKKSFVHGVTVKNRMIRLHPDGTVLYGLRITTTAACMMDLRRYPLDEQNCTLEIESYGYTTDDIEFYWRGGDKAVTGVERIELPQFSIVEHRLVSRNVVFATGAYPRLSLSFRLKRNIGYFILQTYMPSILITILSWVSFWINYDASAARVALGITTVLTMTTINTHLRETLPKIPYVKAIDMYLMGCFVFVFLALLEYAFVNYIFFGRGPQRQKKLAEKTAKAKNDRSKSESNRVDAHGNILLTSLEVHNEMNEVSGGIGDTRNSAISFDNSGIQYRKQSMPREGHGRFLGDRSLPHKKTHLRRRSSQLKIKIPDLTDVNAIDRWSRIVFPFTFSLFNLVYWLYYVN
T1 sequence (P18507 40-467 isoform P18507-1 limits assumed): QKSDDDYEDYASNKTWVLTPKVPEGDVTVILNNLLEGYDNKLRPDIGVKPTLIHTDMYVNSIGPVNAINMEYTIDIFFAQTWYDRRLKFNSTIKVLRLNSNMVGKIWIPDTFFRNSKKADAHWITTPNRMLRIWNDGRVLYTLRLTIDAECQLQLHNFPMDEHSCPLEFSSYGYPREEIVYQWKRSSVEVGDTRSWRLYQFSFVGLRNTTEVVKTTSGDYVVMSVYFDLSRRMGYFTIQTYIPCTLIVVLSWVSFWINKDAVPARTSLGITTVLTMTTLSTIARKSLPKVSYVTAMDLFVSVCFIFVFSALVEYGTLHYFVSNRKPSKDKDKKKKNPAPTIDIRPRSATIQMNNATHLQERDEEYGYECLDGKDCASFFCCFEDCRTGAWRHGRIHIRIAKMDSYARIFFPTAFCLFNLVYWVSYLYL
Outline: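 Whole-cell patch clamp at −60 mV on HEK293 stably expressing α5β3γ2, pH 7.4 extracellular/CsCl internal solutions. Current evoked by 0.05 μM GABA, then compound in GABA solution; screening at 100 nM, dose-response 0.3–300 nM. Inverse agonist efficacy as % change of GABA current.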

[1] = Thermodynamic solubility in simulated intestinal fluid (TS in FaSSIF); format: physicochemical; conditions: thermodynamic from solid, 37° C.
Experimental: Simulated intestinal fluid FaSSIF: 54.76 mg of FaSSIF-V2 (Biorelevant, batch. V2FAS-0619-A, lot. V2FAS01) was weighed and added to 15 mL of a buffer solution. After dissolving, the solution was supplemented to 30 mL, and put at room temperature for 1 hour before use.
Waters e2695 HPLC high performance liquid chromatography, Mettler XSE105 analytical balance.
Firstly, a 10 mM stock solution was prepared with DMSO, and was diluted with a diluent (ACN: PB buffer 50:50) into 1 μM-200 μM as a standard solution.
Thermodynamic solubility in intestinal fluid (TS in FaSSIF) was simulated. About 0.3 mg of each sample was weighed and added to 1.5 mL of FaSSIF solution, with two parts in parallel, shaken at 1000 rpm at 37° C. for 4 hours, filtered. 1 mL of an initial filtrate was discarded, and 400 μL of the subsequent filtrate was taken. The filtrate was detected by high performance liquid chromatograph (UV).

inhibition at 0.1 µM (α5-GABAA receptor) [%] | solubility thermodynamic at 4 h [1] [µg/mL] | Compound
55.9 | 204 (≈ 395 µM) | COc1cc2nnc(-c3cc(C)on3)n2nc1OCc1ccc2c(n1)CCN(C1CN(C(=O)C3CC3)C1)C2 [Embodiment 198]
44.7 | 34.8 (≈ 72.8 µM) | COc1cc2nnc(-c3cc(C)on3)n2nc1OCc1ccc2c(n1)CCN(C(=O)C(C)(C)C)C2 [Embodiment 206]
32.9 | 137 (≈ 315 µM) | COc1cc2nnc(-c3cc(C)on3)n2nc1OCc1ccc2c(n1)CCN(C(C)=O)C2 [Embodiment 115]
47.3 | 30.8 (≈ 73.1 µM) | COc1cc2nnc(-c3cc(C)on3)n2nc1OCc1ccc2c(n1)CN(C(C)C)C2 [Embodiment 102]
35.3 | 70 (≈ 166 µM) | CCN1Cc2ccc(COc3nn4c(-c5cc(C)on5)nnc4cc3OC)nc2C1=O [Embodiment 100]
44.2 | 48.7 (≈ 132 µM) | COc1ccc(COc2nn3c(-c4cc(C)on4)nnc3cc2OC)nn1 [Embodiment 43]
39.5 | 35.4 (≈ 93.8 µM) | COc1cc2nnc(-c3cc(C)on3)n2nc1OCc1cccc2nccn12 [Embodiment 135]
57.4 | 32.6 (≈ 64.3 µM) | COc1cc2nnc(-c3cc(C)on3)n2nc1OCc1ccc2c(n1)CCN(C(=O)N1CCOCC1)C2 [Embodiment 202]
40.7 | 306 (≈ 752 µM) | COc1cc2nnc(-c3cc(C)on3)n2nc1OCc1ccc(CN2CCC2)cn1 [Embodiment 169]
47.3 | 54 (≈ 124 µM) | CCN1CCc2nc(COc3nn4c(-c5cc(C)on5)nnc4cc3OC)ccc2C1=O [Embodiment 109]
53.1 | 38.2 (≈ 112 µM) | COc1cc2nnc(-c3cc(C)on3)n2nc1OCc1cnnn1C [Embodiment 158]
36.7 | 191 (≈ 383 µM) | COc1cc2nnc(-c3cc(C)on3)n2nc1OCc1ccc2c(n1)CCN(CCS(C)(=O)=O)C2 [Embodiment 113, 3-(7-Methoxy-6-((6-(2-(methylsulfonyl)ethyl)-5,6,7,8-tetrahydro-1,6-naphthalen-2-yl)methoxy)-[1,2,4]triazolo[4,3-b]pyridazin-3-yl)-5-methylisoxazole]
33.7 | 222 (≈ 508 µM) | COCCN1Cc2ccc(COc3nn4c(-c5cc(C)on5)nnc4cc3OC)nc2C1 [Embodiment 99]
40.4 | 32.3 (≈ 95.5 µM) | COc1cc2nnc(-c3cc(C)on3)n2nc1OCc1ccccn1 [Embodiment 33, 3-(7-Methoxy-6-(pyridinyl-2-methoxy)-[1,2,4]-triazolo[4,3-b]pyridazin-3-yl)-5-methylisoxazole]
35.4 | 55.2 (≈ 150 µM) | COCc1cc(-c2nnc3cc(OC)c(OCc4ccccn4)nn23)no1 [Embodiment 28, 3-(7-Methoxy-6-(pyridin-2-ylmethoxy)-[1,2,4]triazolo[4,3-b]pyridazin-3-yl)-5-(methoxymethyl)isoxazole]
32.6 | 200 (≈ 418 µM) | COc1cc2nnc(-c3cc(C)on3)n2nc1OCc1ccc2c(n1)CCN(CC(=O)N(C)C)C2 [Embodiment 193]
44.3 | 52.4 (≈ 127 µM) | COCCn1cccc(COc2nn3c(-c4cc(C)on4)nnc3cc2OC)c1=O [Embodiment 75]
37.5 | 59.9 (≈ 136 µM) | CCOCCCOc1ccc(COc2nn3c(-c4cc(C)on4)nnc3cc2OC)nn1 [Embodiment 168]
36.5 | – | COCCCn1ccc2ccc(COc3nn4c(-c5cc(C)on5)nnc4cc3OC)nc21 [Embodiment 93]
47.8 | – | COc1cc2nnc(-c3cc(C)on3)n2nc1OCc1ccc2c(n1)CCN(CCC#N)C2=O [Embodiment 91]
33.4 | – | COCCOc1nccc2nc(COc3nn4c(-c5cc(C)on5)nnc4cc3OC)ccc12 [Embodiment 146]
38 | – | COc1cccnc1COc1nn2c(-c3cc(C)on3)nnc2cc1OC [Embodiment 52]
44.8 | – | COc1cc2nnc(-c3cc(C)on3)n2nc1OCc1ccc2c(n1)CCN(CC(F)(F)F)C2 [Embodiment 77]

More lines, now with the values behind:

Compound | inhibition at 0.1 µM (α5-GABAA receptor) [%] | solubility thermodynamic at 4 h [1] [µg/mL]
CCNCc1ccc(COc2nn3c(-c4cc(C)on4)nnc3cc2OC)nc1 [Embodiment 21] | 36.3 | 519 (≈ 1310 µM)
COc1cc2nnc(-c3cc(C)on3)n2nc1OCc1ccc(OCC2(C)COC2)cn1 [Embodiment 170] | 32.9 | 66.1 (≈ 151 µM)
COc1cc2nnc(-c3cc(C)on3)n2nc1OCc1ccc2c(cnn2C2CN(C)C2)n1 [Embodiment 234] | 53.2 | 266 (≈ 594 µM)
COc1cc2nnc(-c3cc(C)on3)n2nc1OCc1ccc2nnc(C(C)C)n2n1 [Embodiment 214] | 34.9 | 237 (≈ 562 µM)
COc1cc2nnc(-c3cc(C)on3)n2nc1OCc1ccc2c(n1)CCNC2 [Embodiment 78] | 43.4 | 255 (≈ 648 µM)
COc1cc2nnc(-c3cc(C)on3)n2nc1OCc1ccc2c(n1)CCN(C(=O)N(C)C)C2 [Embodiment 203] | 63.6 | 264 (≈ 569 µM)
COCCCOc1cc(C)c(COc2nn3c(-c4cc(C)on4)nnc3cc2OC)nn1 [Embodiment 156] | 40.5 | 73.8 (≈ 167 µM)
COCCn1ccc2nc(COc3nn4c(-c5noc(C)n5)nnc4cc3OC)ccc2c1=O [Embodiment 130] | 39.9 | 30.9 (≈ 66.5 µM)
COc1cc2nnc(-c3cc(C)on3)n2nc1OCc1ccc(OC2CCOCC2)cn1 [Embodiment 174] | 43.5 | 35.4 (≈ 80.8 µM)
COc1cnnc(COc2nn3c(-c4cc(C)on4)nnc3cc2OC)c1 [Embodiment 49] | 37.2 | 143 (≈ 386 µM)
COCCn1cc2nc(COc3nn4c(-c5cc(C)on5)nnc4cc3OC)ccc2n1 [Embodiment 240] | – | 43.5 (≈ 99.7 µM)
COCCCN1CCc2nc(COc3nn4c(-c5cc(C)on5)nnc4cc3OC)ccc2C1=O [Embodiment 107] | 39.3 | 212 (≈ 443 µM)
CCN1CC(F)(c2ccc(COc3nn4c(-c5cc(C)on5)nnc4cc3OC)nc2)C1 [Embodiment 127] | 41.8 | 223 (≈ 508 µM)
CCN1Cc2ccc(COc3nn4c(-c5cc(C)on5)nnc4cc3OC)nc2C1 [Embodiment 68] | 51.3 | 146 (≈ 358 µM)
COc1cc2nnc(-c3cc(C)on3)n2nc1OCc1cccc(C2CCNCC2)n1 [Embodiment 126] | 38.3 | 203 (≈ 481 µM)
COc1cc2nnc(-c3cc(C)on3)n2nc1OCc1ccc2c(n1)CCN(C(=O)NCC(F)(F)F)C2 [Embodiment 208] | 52.2 | 34 (≈ 65.5 µM)
COc1cc2nnc(-c3cc(C)on3)n2nc1OCc1ccc(OCC2CCOC2)nn1 (stereo not drawn) [Embodiment 162] | 36.6 | 237 (≈ 538 µM)
COCCOc1ccc(COc2nn3c(-c4cc(C)on4)nnc3cc2OC)nc1 [Embodiment 6] | 42.2 | 46.9 (≈ 114 µM)
COc1cc2nnc(-c3cc(C)on3)n2nc1OCc1ccc2nn(C3CN(C)C3)cc2n1 [Embodiment 233] | 41.3 | 245 (≈ 547 µM)
COc1cc2nnc(-c3cc(C)on3)n2nc1OCc1ccc2c(n1)CCN(CC(=O)N1CCCC1)C2 [Embodiment 189] | 52.4 | 75.8 (≈ 150 µM)
COc1cc2nnc(-c3cc(C)on3)n2nc1OCc1ccncn1 [Embodiment 31] | 34.1 | 43.8 (≈ 129 µM)
COc1cc2nnc(-c3cc(C)on3)n2nc1OCc1ccc(C2(F)CN(C)C2)cn1 [Embodiment 124] | 43.9 | 365 (≈ 859 µM)
COc1cc2nnc(-c3cc(C)on3)n2nc1OCc1nccc(OC)c1OC [Embodiment 7] | 30.1 | 37.8 (≈ 94.9 µM)
COc1cc2nnc(-c3cc(C)on3)n2nc1OCc1ccc(OC2CC3(COC3)C2)nn1 [Embodiment 179] | 39 | 44.9 (≈ 99.5 µM)
COc1cc2nnc(-c3cc(C)on3)n2nc1OCc1ccc(=O)n(CCCC#N)n1 [Embodiment 36] | 25.9 | 123 (≈ 290 µM)
COCc1ccc(COc2nn3c(-c4cc(C)on4)nnc3cc2OC)nc1 [Embodiment 32] | 41.6 | 262 (≈ 686 µM)
COc1cc2nnc(-c3cc(C)on3)n2nc1OCc1ccc2nccn2n1 [Embodiment 105] | 49.3 | –
COCCOc1ccc(COc2nn3c(-c4noc(C)n4)nnc3cc2OC)nc1 [Embodiment 132] | 57.3 | –
COc1cc2nnc(-c3cc(C)on3)n2nc1OCc1cccc(C)n1 [Embodiment 16] | 31.1 | –
COc1cc2nnc(-c3cc(C)on3)n2nc1OCc1ccc2c(n1)CCN(C1CC(F)(F)C1)C2 [Embodiment 184] | 33.9 | –
